According to ChEMBL document CHEMBL3217577, “Recent applications of multicomponent reactions in medicinal chemistry” (Medchemcomm, 2012):
In brackets after ≈: the same amount, converted by molar mass.

How the values were obtained:
[1] = biological target: Glycogen synthase kinase-3 beta (Mus musculus, UniProt Q9WV60); assay: Inhibition of recombinant mouse GSK3beta expressed in COS-1 cells by luciferase reporter gene assay; type: cell-based
Plasmodium falciparum [2] = assay: Antiparasitic activity against chloroquine-resistant Plasmodium falciparum assessed as inhibition of parasite survival; type: functional, organism-based
HeLa = assay: Antiproliferative activity against human HeLa cells; type: functional
Plasmodium falciparum [3] = assay: Antiparasitic activity against chloroquine-resistant Plasmodium falciparum; type: functional, organism-based
Plasmodium falciparum [4] = assay: Ratio of chloroquine IC50 to compound IC50 for chloroquine-resistant Plasmodium falciparum; type: functional
[5] = biological target: Mitogen-activated protein kinase 14 (Homo sapiens, UniProt Q16539); assay: Inhibition of p38 alpha MAP kinase (unknown origin)
Chain of Mitogen-activated protein kinase 14 (Q16539 whole entry): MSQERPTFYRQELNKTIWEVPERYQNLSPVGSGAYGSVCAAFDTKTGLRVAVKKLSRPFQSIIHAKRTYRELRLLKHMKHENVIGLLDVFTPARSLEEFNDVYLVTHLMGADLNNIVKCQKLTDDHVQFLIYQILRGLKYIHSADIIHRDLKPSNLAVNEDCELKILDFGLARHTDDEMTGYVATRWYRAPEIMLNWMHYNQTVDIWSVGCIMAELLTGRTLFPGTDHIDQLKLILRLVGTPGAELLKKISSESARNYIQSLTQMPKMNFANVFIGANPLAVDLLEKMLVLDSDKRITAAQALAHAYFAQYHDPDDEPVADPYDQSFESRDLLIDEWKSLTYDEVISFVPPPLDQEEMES

[6] = biological target: T1, Tyrosine-protein phosphatase non-receptor type 1 (Homo sapiens, UniProt P18031); assay: Inhibition of PTP1B (unknown origin)
T1 sequence (P18031 whole entry): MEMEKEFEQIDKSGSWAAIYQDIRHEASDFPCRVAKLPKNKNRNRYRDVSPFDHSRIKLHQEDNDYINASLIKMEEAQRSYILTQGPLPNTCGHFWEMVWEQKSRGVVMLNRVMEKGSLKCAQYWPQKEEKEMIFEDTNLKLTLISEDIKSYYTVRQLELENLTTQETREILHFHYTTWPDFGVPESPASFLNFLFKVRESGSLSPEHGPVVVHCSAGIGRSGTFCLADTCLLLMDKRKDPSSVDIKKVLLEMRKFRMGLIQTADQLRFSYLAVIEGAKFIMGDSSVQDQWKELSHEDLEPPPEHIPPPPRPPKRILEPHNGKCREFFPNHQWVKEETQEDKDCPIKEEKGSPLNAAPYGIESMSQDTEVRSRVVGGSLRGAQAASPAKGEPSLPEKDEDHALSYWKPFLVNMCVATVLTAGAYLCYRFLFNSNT

[7] = biological target: T2, Tyrosine-protein phosphatase non-receptor type 2 (Homo sapiens, UniProt P17706); assay: Inhibition of TC-PTP (unknown origin)
T2 sequence (P17706 whole entry): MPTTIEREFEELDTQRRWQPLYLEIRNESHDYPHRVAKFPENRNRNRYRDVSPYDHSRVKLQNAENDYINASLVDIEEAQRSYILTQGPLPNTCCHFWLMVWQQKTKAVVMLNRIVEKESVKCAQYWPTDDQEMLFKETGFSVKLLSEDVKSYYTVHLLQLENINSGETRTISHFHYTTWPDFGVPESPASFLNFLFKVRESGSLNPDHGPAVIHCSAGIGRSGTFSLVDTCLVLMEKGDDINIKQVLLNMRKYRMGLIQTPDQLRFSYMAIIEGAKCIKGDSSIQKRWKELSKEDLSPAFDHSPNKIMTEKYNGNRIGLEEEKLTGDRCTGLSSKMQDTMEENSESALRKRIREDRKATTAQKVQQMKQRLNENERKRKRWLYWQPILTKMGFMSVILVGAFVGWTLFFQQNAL

Aurora kinase A = biological target: T3, Aurora kinase A (Homo sapiens, UniProt O14965); assay: Inhibition of Aurora A kinase (unknown origin)
T3 sequence (O14965 whole entry): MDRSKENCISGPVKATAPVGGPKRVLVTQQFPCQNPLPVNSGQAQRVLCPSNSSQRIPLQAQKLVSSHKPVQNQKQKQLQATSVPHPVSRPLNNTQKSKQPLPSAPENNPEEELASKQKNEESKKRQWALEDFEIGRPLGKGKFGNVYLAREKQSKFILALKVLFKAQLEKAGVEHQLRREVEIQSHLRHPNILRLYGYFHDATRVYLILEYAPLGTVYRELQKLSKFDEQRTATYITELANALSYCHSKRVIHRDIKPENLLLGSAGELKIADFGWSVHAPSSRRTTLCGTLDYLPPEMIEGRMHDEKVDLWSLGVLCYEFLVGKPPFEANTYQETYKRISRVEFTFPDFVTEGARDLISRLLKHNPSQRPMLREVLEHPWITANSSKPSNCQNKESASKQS

[8] = biological target: T4, M-phase inducer phosphatase 2 (Homo sapiens, UniProt P30305); assay: Inhibition of CDC25B (unknown origin)
T4 sequence (P30305 whole entry): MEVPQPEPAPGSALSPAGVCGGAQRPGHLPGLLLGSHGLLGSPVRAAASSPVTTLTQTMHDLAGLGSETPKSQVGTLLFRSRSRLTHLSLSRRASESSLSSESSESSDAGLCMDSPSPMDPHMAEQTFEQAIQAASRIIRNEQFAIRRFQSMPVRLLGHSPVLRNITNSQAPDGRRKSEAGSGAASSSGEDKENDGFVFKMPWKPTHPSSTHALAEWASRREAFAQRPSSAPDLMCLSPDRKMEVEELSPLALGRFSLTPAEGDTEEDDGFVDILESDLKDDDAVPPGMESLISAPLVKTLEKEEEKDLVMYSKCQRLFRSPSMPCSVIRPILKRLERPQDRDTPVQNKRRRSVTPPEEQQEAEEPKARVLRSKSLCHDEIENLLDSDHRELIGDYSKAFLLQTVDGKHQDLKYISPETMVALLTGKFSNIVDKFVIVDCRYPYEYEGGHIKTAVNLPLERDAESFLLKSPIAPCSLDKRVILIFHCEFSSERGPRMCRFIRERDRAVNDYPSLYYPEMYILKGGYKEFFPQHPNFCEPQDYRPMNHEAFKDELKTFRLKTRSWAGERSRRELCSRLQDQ

[9] = Inhibition of Mycobacterium tuberculosis protein tyrosine phosphatase B
[10] = biological target: T5, Tumour suppressor p53/oncoprotein Mdm2 (Homo sapiens, UniProt Q00987); assay: Competitive inhibition of recombinant human Mdm2 (aa 1 to 118)-p53 ( 1 to 321) interaction; type: protein assay
T5 sequence (P04637 whole entry, the tested form may be a part): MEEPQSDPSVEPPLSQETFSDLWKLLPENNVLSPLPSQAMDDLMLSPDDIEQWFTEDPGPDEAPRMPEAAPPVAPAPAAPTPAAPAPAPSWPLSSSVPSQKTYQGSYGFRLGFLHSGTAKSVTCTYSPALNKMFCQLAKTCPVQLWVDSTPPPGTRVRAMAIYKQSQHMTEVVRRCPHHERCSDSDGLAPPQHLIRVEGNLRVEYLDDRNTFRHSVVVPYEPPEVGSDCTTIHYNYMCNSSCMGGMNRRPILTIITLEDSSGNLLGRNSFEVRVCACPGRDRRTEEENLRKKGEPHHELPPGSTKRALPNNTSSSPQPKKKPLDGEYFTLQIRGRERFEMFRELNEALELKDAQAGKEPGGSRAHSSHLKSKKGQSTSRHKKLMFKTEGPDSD
T5 sequence (Q00987 whole entry, the tested form may be a part): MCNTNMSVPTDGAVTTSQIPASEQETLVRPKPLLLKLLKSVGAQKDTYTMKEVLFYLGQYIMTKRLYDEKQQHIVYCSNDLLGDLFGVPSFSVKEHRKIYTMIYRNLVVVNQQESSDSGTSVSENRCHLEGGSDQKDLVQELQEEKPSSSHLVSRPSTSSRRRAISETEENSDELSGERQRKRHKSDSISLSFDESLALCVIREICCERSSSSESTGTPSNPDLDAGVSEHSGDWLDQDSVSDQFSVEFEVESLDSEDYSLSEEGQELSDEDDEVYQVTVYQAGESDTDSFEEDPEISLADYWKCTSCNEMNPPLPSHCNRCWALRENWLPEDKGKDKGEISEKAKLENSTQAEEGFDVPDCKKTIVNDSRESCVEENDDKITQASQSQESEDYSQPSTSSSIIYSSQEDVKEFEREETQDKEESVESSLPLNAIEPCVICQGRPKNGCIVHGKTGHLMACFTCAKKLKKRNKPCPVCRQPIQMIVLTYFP

[11] = biological target: T6, E3 ubiquitin-protein ligase Mdm2 (Homo sapiens, UniProt Q00987); assay: Binding affinity to HDM2 ( unknown origin) by NMR analysis
T6 sequence (Q00987 whole entry): as the sequence (Q00987 whole entry, the tested form may be a part) above

[12] = biological target: T5, Tumour suppressor p53/oncoprotein Mdm2; assay: Inhibition of Mdm2-p53 interaction in human PA-1 cells; type: cell-based
[13] = biological target: T6, E3 ubiquitin-protein ligase Mdm2; assay: Inhibition of Mdm2 in p53-deficient human PA-1 cells; type: cell-based
MCF7 = assay: Antiproliferative activity against human MCF7 cells; type: functional, cell-based
Trypanosoma cruzi = assay: Antiparasitic activity against epimastigote stage of Trypanosoma cruzi assessed as growth inhibition at 50 uM; type: functional
Prolyl endopeptidase = biological target: T7, Prolyl endopeptidase (Homo sapiens, UniProt P48147); assay: Inhibition of purified prolyl oligopeptidase (unknown origin) after 1 hr by spectrophotometry
T7 sequence (P48147 whole entry): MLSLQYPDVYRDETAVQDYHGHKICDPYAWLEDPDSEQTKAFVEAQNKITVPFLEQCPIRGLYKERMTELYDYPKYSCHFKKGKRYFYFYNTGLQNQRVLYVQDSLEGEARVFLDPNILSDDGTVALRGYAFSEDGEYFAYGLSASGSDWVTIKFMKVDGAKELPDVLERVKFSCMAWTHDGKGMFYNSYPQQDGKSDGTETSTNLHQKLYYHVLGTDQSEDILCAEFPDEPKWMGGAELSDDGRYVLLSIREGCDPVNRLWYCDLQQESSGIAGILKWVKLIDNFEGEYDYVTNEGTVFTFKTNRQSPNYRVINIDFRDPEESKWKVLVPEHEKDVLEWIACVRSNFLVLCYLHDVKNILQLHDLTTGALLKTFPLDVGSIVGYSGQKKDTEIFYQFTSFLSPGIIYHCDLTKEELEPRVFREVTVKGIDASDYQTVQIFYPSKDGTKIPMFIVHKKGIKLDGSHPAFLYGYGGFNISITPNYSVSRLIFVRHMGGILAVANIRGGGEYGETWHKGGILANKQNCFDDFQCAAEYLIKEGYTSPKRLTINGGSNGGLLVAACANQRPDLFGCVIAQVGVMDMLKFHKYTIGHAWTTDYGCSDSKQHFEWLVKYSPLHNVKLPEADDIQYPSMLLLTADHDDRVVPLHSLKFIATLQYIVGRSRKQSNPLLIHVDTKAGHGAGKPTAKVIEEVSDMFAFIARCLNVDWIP

[14] = tested on: Mycobacterium tuberculosis; assay: Antibacterial activity against Mycobacterium tuberculosis H37Ra; type: functional
HT-29 = assay: Cytotoxicity against human HT-29 cells; type: functional
PC-3 = assay: Cytotoxicity against human PC3 cells; type: functional

Chain of Glycogen synthase kinase-3 beta (Q9WV60 whole entry): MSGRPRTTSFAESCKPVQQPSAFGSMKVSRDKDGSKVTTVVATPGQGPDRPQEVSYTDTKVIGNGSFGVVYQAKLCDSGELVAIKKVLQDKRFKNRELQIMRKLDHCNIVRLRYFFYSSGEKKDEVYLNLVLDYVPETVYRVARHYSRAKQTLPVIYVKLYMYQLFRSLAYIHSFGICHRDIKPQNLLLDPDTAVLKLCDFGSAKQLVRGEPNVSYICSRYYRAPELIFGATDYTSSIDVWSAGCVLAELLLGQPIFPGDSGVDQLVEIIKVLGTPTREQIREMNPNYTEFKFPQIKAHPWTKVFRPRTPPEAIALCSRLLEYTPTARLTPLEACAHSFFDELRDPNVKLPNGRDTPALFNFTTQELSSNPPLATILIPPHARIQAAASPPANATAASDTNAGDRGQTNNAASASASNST

**Q.** For `c1cnc2nc(-c3ccc4[nH]ncc4c3)c(NC3CCCCC3)n2c1`, which Ki [1] is on record?
**A.** 10 nM

**Q.** With `O=C(CN(CCCNc1ccnc2cc(Cl)ccc12)C(=O)c1ccncc1)NC1CCCCC1` as the compound, how does the IC50 (Plasmodium falciparum [2]) read?
**A.** 610 nM

**Q.** Which IC50 (Plasmodium falciparum [2]) does the source give for `O=C(CN(CCCNc1ccnc2cc(Cl)ccc12)C(=O)c1cnccn1)NC1CCCCC1` here?
**A.** 540 nM

**Q.** Which GI50 (HeLa) does the source give for `Cc1cc2c(c(=O)n1C)C(c1ccc(N(C)C)c(Br)c1)C(C#N)=C(N)O2` (stereo not given) here?
**A.** 330 nM

**Q.** For `CC(NCCCNc1ccnc2cc(Cl)ccc12)c1nc(Cc2ccccc2)c(N2CCOCC2)o1` (stereo not given), which IC50 (Plasmodium falciparum [3]) is on record?
**A.** 3.8 nM

**Q.** And the “Ratio IC50” value (Plasmodium falciparum [4])?
**A.** 21

**Q.** For `Cc1ccoc1-c1cc(-c2ccc(Br)cc2)[nH]c(=N)c1C#N`, which IC50 [5] is on record?
**A.** 70 nM

**Q.** Which IC50 [5] does the source give for `N#Cc1c(-c2ccc(Cl)c(Cl)c2)cc(-c2ccc(Br)cc2)nc1N` here?
**A.** 120 nM

**Q.** Which IC50 [6] does the source give for `COC(c1ccc(C)cc1)c1cnn2c(-c3ccccc3)cc3c(Cl)cccc3c12` (stereo not given) here?
**A.** 1000 nM

**Q.** And the IC50 [7]?
**A.** 4500 nM

**Q.** And the IC50 (Aurora kinase A)?
**A.** 13400 nM

**Q.** What about the IC50 [8] of the same compound?
**A.** 2190 nM

**Q.** With `COc1ccc(NN2[C@@H]([C@H](O)c3cc(Br)c(OC)c(OC)c3)C=C[C@H]3C(=O)N(C4CCCCC4)C(=O)[C@H]32)cc1` as the compound, how does the IC50 [9] read?
**A.** 66000 nM

**Q.** For `O=C1NC(=O)[C@@H]2C=C[C@H]([C@H](O)C3CC=CCC3)N(Nc3ccc(Cl)cc3Cl)[C@H]12` (stereo not given in full), which IC50 [9] is on record?
**A.** 68000 nM

**Q.** With `O=C(NCc1ccccc1)C1C(=O)Nc2sc3c(c2C(=O)N1Cc1ccc(Cl)cc1)CCCC3` (stereo not given) as the compound, how does the Ki [10] read?
**A.** 40000 nM

**Q.** For `O=C(NCc1ccc(Cl)c(Cl)c1)C1C(=O)Nc2sc3c(c2C(=O)N1Cc1ccc(Cl)cc1)CCCC3` (stereo not given), which Ki [10] is on record?
**A.** 45000 nM

**Q.** For `Cc1ccc(S(=O)(=O)/N=C(\Nc2ccc(Cl)cc2)NC(C)(C)C)cc1`, which Kd [11] is on record?
**A.** > 100000 nM

**Q.** What does the source list for `O=C1C(O)=C(c2ccccc2)C(c2ccc(Cl)cc2)N1Cc1ccc(Cl)cc1` (stereo not given)?
**A.** IC50 [12]: 12200 nM; Kd [11]: > 200000 nM; IC50 [13]: 26200 nM

**Q.** For `CC1(C)CC(=O)C2=C(C1)Oc1ccc3ccccc3c1C2c1ccc(O)cc1` (stereo not given), which IC50 (MCF7) is on record?
**A.** 6.7 µg/mL (≈ 18.1 µM)

**Q.** For `N#CC1=C(N)Oc2ccc3ccccc3c2C1c1ccc([N+](=O)[O-])cc1` (stereo not given), which IC50 (MCF7) is on record?
**A.** 8.9 µg/mL (≈ 25.9 µM)

**Q.** With `CC1(C(=O)NC2CCCCC2)CCCC(=O)N1CCCCCNc1ccnc2cc(Cl)ccc12` (stereo not given) as the compound, how does the IC50 (Plasmodium falciparum [3]) read?
**A.** 96 nM

**Q.** With `COC(=O)C1=C(C)N(C)C(=O)N(C(=O)NCCCCNc2ccnc3cc(Cl)ccc23)C1c1ccc(OC)cc1` (stereo not given) as the compound, how does the IC50 (Plasmodium falciparum [3]) read?
**A.** 4 nM

**Q.** What about the “Ratio IC50” value (Plasmodium falciparum [4]) of the same compound?
**A.** 200

**Q.** With `CNC(=O)CC1S/C(=N\N=C(/C)c2ccc(Br)cc2)N(C)C1=O` (stereo not given) as the compound, how does the inhibition at 50 µM (Trypanosoma cruzi) read?
**A.** 60%

**Q.** Which IC50 (Prolyl endopeptidase) does the source give for `CCOC(=O)c1ccc2c(c1)c1c(c(-c3cccc4ccccc34)[n+]2C)CCO1` here?
**A.** 75000 nM

**Q.** Which MIC [14] does the source give for `COc1ccc(C2Nc3ccccc3C3CCCOC32)cc1` (stereo not given) here?
**A.** 6.25 µM (≈ 1.85 µg/mL)

**Q.** Which GI50 (HeLa) does the source give for `Cn1c(=O)c2c(c3ccccc31)OC(N)=C(C#N)C2c1cncc(Br)c1` (stereo not given) here?
**A.** 13 nM

**Q.** With `CC1CS(=O)(=O)CCN1/N=C/c1ccc([N+](=O)[O-])o1` (stereo not given) [NIFURTIMOX] as the compound, how does the inhibition at 50 µM (Trypanosoma cruzi) read?
**A.** 100%

**Q.** With `CC(=O)O[C@H]1C(=O)[C@@]2(C)[C@H]([C@H](OC(=O)c3ccccc3)[C@]3(O)C[C@H](OC(=O)[C@H](O)[C@@H](NC(=O)c4ccccc4)c4ccccc4)C(C)=C1C3(C)C)[C@]1(OC(C)=O)CO[C@@H]1C[C@@H]2O` [PACLITAXEL] as the compound, how does the GI50 (HT-29; Homo sapiens, HT-29) read?
**A.** 5.3 nM

**Q.** What about the GI50 (PC-3; Homo sapiens, PC-3) of the same compound?
**A.** 7.2 nM

**Q.** With `CC/C(=C(\c1ccccc1)c1ccc(OCCN(C)C)cc1)c1ccccc1` [TAMOXIFEN] as the compound, how does the IC50 (MCF7) read?
**A.** 10 µg/mL (≈ 26.9 µM)

**Q.** What does the source list for `CC[C@@H](C)[C@H](NC(=O)[C@H]1CCCCN1C)C(=O)N(COC(=O)CC(C)C)[C@H](C[C@@H](OC(C)=O)c1nc(C(=O)N[C@@H](Cc2ccc(O)cc2)C[C@H](C)C(=O)O)cs1)C(C)C` [TUBULYSIN A]?
**A.** GI50 (HT-29): 0.32 nM; GI50 (PC-3): 0.21 nM
